# Measurements as given in patent US20250092056A1, “URACIL DERIVATIVES HAVING VIRUS REPLICATION INHIBITORY ACTIVITY AND PHARMACEUTICAL COMPOSITION COMPRISING THE SAME” (Shionogi & Co., Ltd., priority 2022, published 2025).
# Where two headings read alike, the source gives them in different places.
# Columns and labels:
# [1] = test system: SARS-CoV-2; assay: Cytopathic effect (CPE) suppression effect confirmation test using HEK293T/ACE2-TMPRSS2 cells; assay type: cell-based; conditions: Severe acute respiratory syndrome coronavirus 2, HEK-293T
# [2] = molecular target: Recombinant SARS-CoV-2 3CL Protease (Severe acute respiratory syndrome coronavirus 2 (2019-nCoV) (SARS-CoV-2), UniProt P0DTD1); assay: biochemical; assay type: biochemical; conditions: 50% SARS-CoV-2 3CL protease inhibitory concentration; read-out: IC50
# [3] = 50% SARS-CoV-2 infected cell death inhibitory concentration, HEK293T/ACE2-TMPRSS2 cells, read-out: EC50
# [4] = 72 h, HEK293T/ACE2-TMPRSS2 cells, CPE suppression, CellTiter-Glo 2.0 after 3 days culture, read-out: EC50 (50% SARS-CoV-2 infected cell death inhibitory concentration), class
# [5] = 72 h, read-out: EC50 (50% SARS-CoV-2 infected cell death inhibitory concentration), class, HEK293T/ACE2-TMPRSS2 cells, CPE suppression, CellTiter-Glo 2.0 after 3 days culture
SMILES,"EC50 [1, 3] [nM]",IC50 [2] [nM],"EC50 [1, 4] [nM]","EC50 [1, 5] [nM]","EC50 ([1]; 72 h, read-out: EC50 (50% SARS-CoV-2 infected cell death inhibitory concentration), HEK293T/ACE2-TMPRSS2 cells, CPE suppression, CellTiter-Glo 2.0 after 3 days culture) [nM]"
CC1(O)CN(c2c(-c3ccc(F)c(Cl)c3)c(=O)n(-c3cncc(OCF)n3)c(=O)n2CC#N)C1 [Compound I-355],< 100,< 10,,,
N#CCn1c(N2CC(C(F)(F)F)C2)c(-c2ccc(F)c(Cl)c2)c(=O)n(-c2cncc(F)c2)c1=O [Compound I-295],< 100,< 10,,,
Cc1cncc(-n2c(=O)c(C(=O)c3cc(F)c(F)c(F)c3)c(-c3cc4ccccc4s3)n(CC#N)c2=O)c1 [Compound I-011],,10 to 100,< 100,,
Cc1cncc(-n2c(=O)c(-c3ccc(F)c(Cl)c3)c(N3CC4(CCOC4)C3)n(CC#N)c2=O)c1 [Compound I-045],,< 10,,< 100,
Cc1cc(-n2c(=O)c(-c3cc(F)c(F)c(Cl)c3)c(N3CCC(C(F)(F)F)CC3)n(CC#N)c2=O)cc(=O)[nH]1 [Compound I-034],,10 to 100,< 100,,
N#CCn1c(N2CC3(C2)CC(F)(F)C3)c(-c2ccc(F)c(F)c2)c(=O)n(-c2cncc(Cl)c2)c1=O [Compound I-315],< 100,< 10,,,
N#CCn1c(N2C[C@@H]3C[C@H]2CO3)c(-c2ccc(F)c(C(F)F)c2)c(=O)n(-c2cncc(Cl)c2)c1=O [Compound I-343],< 100,< 10,,,
N#CCn1c(N2CCC(F)(F)CC2)c(-c2cccc(Cl)c2)c(=O)n(-c2cncc(Cl)c2)c1=O [Compound I-174],,< 10,,< 100,
CC1(C)CCN(c2c(-c3cccc(C#N)c3)c(=O)n(-c3cncc(Cl)c3)c(=O)n2CC#N)CC1 [Compound I-176],,< 10,,< 100,
Cc1cncc(-n2c(=O)c(Cc3cc(F)c(F)c(F)c3)c(/C=C/CO)n(CC#N)c2=O)c1 [Compound I-047],,> 100,,100 to 1000,
Cc1cncc(-n2c(=O)c(-c3ccc(F)c(Cl)c3)c(-c3ccc(C4CC4)cc3)n(CC#N)c2=O)c1 [Compound I-071],,< 10,,< 100,
N#CCn1c(N2CC(CO)C2)c(-c2ccc(F)c(Cl)c2)c(=O)n(-c2cncc(Cl)c2)c1=O [Compound I-249],,0.54,,,7.9
N#CCn1c(N2CCC(F)(F)CC2)c(-c2ccc(F)c(F)c2)c(=O)n(-c2cncc(Cl)c2)c1=O [Compound I-401],< 100,< 10,,,
N#CCn1c(N2CC(F)(F)C2)c(-c2ccc(F)c(Cl)c2)c(=O)n(-c2cncc(Cl)c2)c1=O [Compound I-290],< 100,< 10,,,
Cc1cncc(-n2c(=O)c(Cc3cc(F)c(F)c(F)c3)c(-c3ccc(C)c(C)c3)n(C(C#N)C(=O)O)c2=O)c1 (racemic) [Compound I-056],,10 to 100,< 100,,
N#CCn1c(N2CC3(C2)CC(F)(F)C3)c(-c2ccc(F)c(Cl)c2)c(=O)n(-c2onc3cc(F)ccc23)c1=O [Compound I-304],< 100,< 10,,,
N#CCn1c(CC2(O)CCC2)c(-c2ccc(F)c(Cl)c2)c(=O)n(-c2cncc(Cl)c2)c1=O [Compound I-407],< 100,10 to 100,,,
Cc1cnnc(-n2c(=O)c(-c3ccc(F)c(Cl)c3)c(N3CC4(CCOC4)C3)n(CC#N)c2=O)c1 [Compound I-160],,< 10,,< 100,
N#CCn1c(C2CC(F)(F)C2)c(-c2ccc(F)c(Cl)c2)c(=O)n(-c2cncc(Cl)c2)c1=O [Compound I-394],< 100,< 10,,,
N#CCn1c(-c2ccc(CO)nc2)c(-c2ccc(F)c(Cl)c2)c(=O)n(-c2cncc(Cl)c2)c1=O [Compound I-380],< 100,< 10,,,
"C[C@@H](C#N)n1c(N2CC3(CCOC3)C2)c(-c2ccc(F)c(Cl)c2)c(=O)n(-c2cncc(Cl)c2)c1=O (single isomer, unassigned) [Compound I-262]",< 100,< 10,,,
N#CCn1c(N2CCC(C(F)(F)F)CC2)c(-c2ccc(F)c(Cl)c2)c(=O)n(-c2cncc(Cl)c2)c1=O [Compound I-069],,< 10,,< 100,
N#CCn1c(N2CCC(C(F)(F)F)CC2)c(-c2ccc(F)c(C#N)c2)c(=O)n(-c2cncc(Cl)c2)c1=O [Compound I-402],< 100,< 10,,,
CCCNC(=O)c1c(-c2ccc(F)c(Cl)c2)c(=O)n(-c2cncc(Cl)c2)c(=O)n1CC#N [Compound I-405],100 to 1000,> 100,,,
N#CCn1c(N2CC[C@H](C(=O)N3CC(F)(F)C3)C2)c(-c2ccc(F)c(Cl)c2)c(=O)n(-c2cncc(Cl)c2)c1=O [Compound I-235],< 100,< 10,,,
Cc1cncc(-n2c(=O)c(Cc3cc(F)c(F)c(F)c3)c(N3CCC4(CC3)CNC(=O)O4)n(CC#N)c2=O)c1 [Compound I-114],,< 10,,100 to 1000,
